In this assay the test system is lower esophageal sphincter (LES). Kind of assay: Determination of LES pressure in the anesthetized dog. In kind it is in vivo, dogs. As to conditions: Canis lupus familiaris, mean ED20 = dose which increases LES pressure 20 mm Hg (N>=3). The method, then:
Methods for Determination of LES Pressure in the Anesthetized Dog
Mongrel or beagle dogs, male and female, are anesthetized using sodium pentobarbital (35.0 mg/kg., i.v.). Sodium pentobarbital is then continuously infused (approximately 6.0 mg/kg/hr) to maintain deep anesthesia. Blood pressure is monitored via a catheter surgically implanted into the femoral artery and attached to a Gould-Statham P23ID transducer. A catheter is also implanted into the femoral vein to administer test drugs. Respiration is maintained by an endotracheal tube attached to a respirator. A continuously perfused manometric catheter system including a Dent sleeve to measure sphincter pressure (Dent, Gastroenterology 71:263-267, 1976) is inserted into the esophagus and positioned so that intraluminal pressure is recorded from the body of the esophagus, the lower esophageal sphincter (LES) and the fundus of the stomach. The Dent sleeve catheter is perfused at a rate of 0.5 ml of water per minute for each lumen of the catheter by using an Arndorfer Hydraulic Capillary Infusion System. A cannula is implanted into the gastric antrum to allow drainage of the perfusate solution and prevent intestinal distension. Continuous tracings of esophageal, LES and fundus pressure are monitored on a Grass Polygraph (Model 7D). Correct positioning of the Dent sleeve is verified by noting a high pressure zone at the LES and by administration of an intravenous dose of 5-HT (usually 10-15 mcg/kg) which contracts the LES while having little or no recordable effect on either the body of the esophagus or the fundus. After verification of placement of the sleeve, the animal is allowed to stabilize for approximately 30 minutes.
Compounds are administered intravenously or intraduodenally. In most cases, succeeding doses of the same or different compounds are given only after the LES pressure has returned to approximate pre-dosing baseline values. In all cases, the magnitude of change in LES pressure is determined from the baseline pressure immediately prior to each treatment to the maximum pressure during treatment. Since the compounds used usually produce an immediate effect on LES pressure, no pretreatment time prior to measurement is necessary during this testing.
Direct assay techniques are used to estimate an Effective Dose 20 (ED₂₀) for the test compound in individual animals. The mean ED₂₀ and 95% confidence limits are determined using the individual ED₂₀ values from a group of animals (N= ≧3) that received the same treatment. The ED₂₀ is the dose which increases LES pressure 20 mm Hg.

Setting [1] is: intraduodenal, read-out: ED20 in mcg/kg i.d.
[2] abbreviates: intravenous, read-out: ED20 in mcg/kg i.v.

Read-outs that look alike come from different tables or passages of the source.

Turning to `CN1CCc2cc(O)c(Sc3ccccc3)cc2CC1` [Compound 2, 8-hydroxy-3-methyl-7-phenylthio-2,3 4,5-tetrahydro-1H-3-benzazepine], the ED (20 mm Hg) runs as follows: under setting [1], about 1000 µg/kg; under setting [2], 14 µg/kg. Take `CN1CCc2cc(Sc3ccccc3)c([N+](=O)[O-])cc2CC1` [Compound 5, 3-methyl-7-nitro-8-phenylthio-2,3,4,5-tetrahydro-1H-3-benzazepine]: the ED (20 mm Hg) under setting [2] was 1200 µg/kg. As for `CN1CCc2ccc(O)c(Sc3ccccc3)c2CC1` [Compound 1, 7-hydroxy-3-methyl-6-phenylthio-2,3 4,5-tetrahydro-1H-3-benzazepine], the ED (20 mm Hg) under setting [1] came to 263 µg/kg and the ED (20 mm Hg) under setting [2] stood at 63 µg/kg. Turning to `Oc1ccc2c(c1)CCNCC2` [Compound 4, 7-hydroxy-2,3,4,5-tetrahydro-1H-3-benzazepine], the ED (20 mm Hg) under setting [2] worked out at 348 µg/kg. For the compound `CSc1ccc2c(c1)CCN(C)CC2` [Compound 3, 3-methyl-7-methylthio-2,3,4,5-tetra-hydro-1H-3-benzazepine], the ED (20 mm Hg) under setting [1] is 236 µg/kg and the ED (20 mm Hg) under setting [2] was determined as 273 µg/kg.

(Values after patent EP0285287A2, “3-Benzazepine compounds for use in treating gastrointestinal motility disorders” (SMITHKLINE BECKMAN CORPORATION, priority 1987, dated 1988).)
